# Laboratory results published in patent US20240261250A1 (priority 2020, published 2024).
# How the values were obtained:
# SH-SY5Y cells [1] = type: cell-based
# SH-SY5Y cells [2] = type: cell-based; remark: listed apart in the source
# SH-SY5Y cells [3] = system: SH-SY5Y cells
# SH-SY5Y cells [4] = type: cell-based; remark: listed apart in the source
smiles,measurement,setting,value
"O[C@H]1[C@H](O)[C@@H](O)[C@@H]2O[C@@H]2[C@@H]1O (racemic) [CBE, Conduritol B Epoxide]",concentration of GlcCer of various side chains in cells,SH-SY5Y cells [1],much higher
same,immunofluorescence intensity of Lyso-tracker,SH-SY5Y cells [2],increased significantly
same,number of Lyso-tracker labeled positive cells,SH-SY5Y cells [2],significantly increased
same,cell viability,SH-SY5Y cells [3],significantly inhibited
"COc1ncc(-c2ccc3nc(N)n(-c4ccc(N5CCOCC5)cc4)c3c2)cc1S(=O)(=O)Nc1ccccc1F [A1, 5-(2-amino-1-(4-(4-morpholinyl)phenyl)-1H-benzimidazol-6-yl)-N-(2-fluorophenyl)-2-methoxy-3-pyridinesulfonamide]",Lyso-tracker labeled positive cells,SH-SY5Y cells [2],fewer Lyso-tracker labeled positive cells
"CO/C1=C\C(C)=C\[C@@H](C)[C@@H](O)[C@@H](C)C/C(C)=C/C=C/[C@H](OC)[C@@H]([C@@H](C)[C@@H](O)[C@H](C)[C@@]2(O)C[C@@H](O)[C@H](C)[C@@H](C(C)C)O2)OC1=O [Baf-A1, Bafilomycin A1]",cell viability,SH-SY5Y cells [3],not significantly different
same,effect on the protection by PAO (cell viability),SH-SY5Y cells [3],decreased the protection effect of PAO
CCN(CC)CCO[C@H]1CC[C@@]2(C)C(=CC[C@@H]3[C@@H]2CC[C@]2(C)C(=O)CC[C@@H]32)C1 [U18666A],Filipin staining fluorescence intensity,SH-SY5Y cells [4],enhanced
